Source: the NIST ThermoML archive (doi:10.1016/j.jct.2012.03.014)

Assay: cn = amount concentration of the nth substance listed, in mol/dm3
Details: 298.15 K, 101 kPa, Liquid, Taylor dispersion method

CC(=O)Nc1ccc(O)cc1 [N-acetyl-p-aminophenol] + O
Details	binary diffusion coefficient [m2/s]
c1 = 0.001	6.63e-10
c1 = 0.003	6.59e-10
c1 = 0.005	6.54e-10
c1 = 0.01	6.5e-10
c1 = 0.03	6.29e-10
c1 = 0.05	6.21e-10
